ChEMBL document CHEMBL1201862, “PubChem BioAssay data set” (2004)
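Step 1: Grow cells in 96-well plates. Step 2: Expose to compound for 48 hours at 5 concentrations. Step 3: Interpolate endpoints linearly; if unreached, use highest concentration. Here, GI50 denotes the concentration required for 50% inhibition of growth.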 Active and inactive are the calls of the source. No stated cut-off is given here; in the data, active = GI50 up to about 1.1 µM and inactive = higher.

How the values were obtained:
Assay in all cases: growth of human tumour cells (NCI), 48 h
SW-620 = system: SW-620
DMS-273 = system: DMS-273
SK-OV-3 = system: SK-OV-3
HL-60 = system: HL-60
CAKI-1 = system: CAKI-1
SR = system: SR
A498 = system: A498
M14 = system: M14
HCT-116 = system: HCT-116
SNB-19 = system: SNB-19
SN12C = system: SN12C
U-251 = system: U-251
UACC-62 = system: UACC-62
UO-31 = system: UO-31
OVCAR-4 = system: OVCAR-4
OVCAR-3 = system: OVCAR-3
HOP-92 = system: HOP-92
RPMI-8226 = system: RPMI-8226

Row | Compound | GI50 (SW-620) | GI50 (DMS-273) | GI50 (SK-OV-3) | GI50 (HL-60) | GI50 (CAKI-1) | GI50 (SR) | GI50 (A498) | GI50 (M14) | GI50 (HCT-116) | GI50 (SNB-19) | GI50 (SN12C) | GI50 (U-251) | GI50 (UACC-62) | GI50 (UO-31) | GI50 (OVCAR-4) | GI50 (OVCAR-3) | GI50 (HOP-92) | GI50 (RPMI-8226)
1 | Cc1c(C(Cc2ccccc2N(C)C(=O)/C=C\C(=O)O)c2c[nH]c3ccccc23)c2ccccc2n1C (stereo unspecified) | 18.1 µM (inactive) | 17.1 µM (inactive) | 21.7 µM (inactive) | 4.66 µM (inactive) | 19.3 µM (inactive) | 16.9 µM (inactive) | 17.9 µM (inactive) | 15.4 µM (inactive) | 15.1 µM (inactive) | 18 µM (inactive) | 16 µM (inactive) | 16.4 µM (inactive) | 17.2 µM (inactive) | 14.5 µM (inactive) | 22.5 µM (inactive) | 12.3 µM (inactive) |  | 
2 | Clc1ccccc1C1=NN(c2ccccc2)C2c3ccccc3OCC12 (stereo unspecified) | > 100 µM (inactive) | 83.8 µM (inactive) | > 100 µM (inactive) | 41.6 µM (inactive) |  |  | > 100 µM (inactive) |  | 43.3 µM (inactive) | > 100 µM (inactive) |  | > 100 µM (inactive) |  | > 100 µM (inactive) |  | > 100 µM (inactive) | 39.6 µM (inactive) | 34.1 µM (inactive)
3 | COC1=CC(=C(C#N)/C(=N\c2ccccc2)SC)C=C(OC)C1=O | 38.7 µM (inactive) | 36.1 µM (inactive) | > 100 µM (inactive) |  | > 100 µM (inactive) |  | 20.9 µM (inactive) | > 10 µM (inactive) | 29.9 µM (inactive) |  | > 100 µM (inactive) | 0.352 µM (active) | 44.3 µM (inactive) | 36.5 µM (inactive) |  | 31.2 µM (inactive) | 3.84 µM (inactive) | 18.8 µM (inactive)
4 | CCOC(=O)/C=C1/Oc2ccccc2C1(C)O (stereo unspecified) | > 100 µM (inactive) | > 100 µM (inactive) | > 100 µM (inactive) | > 100 µM (inactive) | > 100 µM (inactive) |  | > 100 µM (inactive) | > 100 µM (inactive) | > 100 µM (inactive) | > 100 µM (inactive) | > 100 µM (inactive) | > 100 µM (inactive) | > 100 µM (inactive) | > 100 µM (inactive) | > 100 µM (inactive) | > 100 µM (inactive) | > 100 µM (inactive) | 84.5 µM (inactive)
5 | Cc1cc2c(cc1C)[n+]([O-])c(C(=O)/C=C/c1ccc(Cl)cc1)c(C)[n+]2[O-] | 31.1 µM (inactive) | 33.1 µM (inactive) | 34.7 µM (inactive) | 24 µM (inactive) | 32.3 µM (inactive) |  | 26.7 µM (inactive) | 23.3 µM (inactive) |  | 30.3 µM (inactive) | 32.8 µM (inactive) | 26.8 µM (inactive) | 20.3 µM (inactive) | 17.9 µM (inactive) | 33.7 µM (inactive) | 33 µM (inactive) | 28.6 µM (inactive) | 23.4 µM (inactive)
6 | CCc1ccccc1NC(=O)C(=O)CC(=O)c1sc(Nc2ccccc2)nc1C | > 100 µM (inactive) | > 100 µM (inactive) | > 100 µM (inactive) | 89.1 µM (inactive) | 85.9 µM (inactive) | 99.3 µM (inactive) | > 100 µM (inactive) | > 100 µM (inactive) | > 100 µM (inactive) | > 100 µM (inactive) | > 100 µM (inactive) | > 100 µM (inactive) | 99.5 µM (inactive) | > 100 µM (inactive) | > 100 µM (inactive) | 80.5 µM (inactive) | > 100 µM (inactive) | 
7 | [N-]=[N+]=NC1CC(n2cc(COCC(F)(F)F)c(=O)[nH]c2=O)OC1CO (stereo unspecified) | > 100 µM (inactive) | > 100 µM (inactive) | > 100 µM (inactive) | > 100 µM (inactive) | > 100 µM (inactive) |  | > 100 µM (inactive) | > 100 µM (inactive) |  | > 100 µM (inactive) | > 100 µM (inactive) | > 100 µM (inactive) | > 100 µM (inactive) | > 100 µM (inactive) | > 100 µM (inactive) | > 100 µM (inactive) | > 100 µM (inactive) | > 100 µM (inactive)
8 | O=CCCn1[nH]c(=O)ccc1=O | > 100 µM (inactive) | > 100 µM (inactive) |  | > 100 µM (inactive) | > 100 µM (inactive) | > 100 µM (inactive) | > 100 µM (inactive) | > 100 µM (inactive) | > 100 µM (inactive) | > 100 µM (inactive) | > 100 µM (inactive) | > 100 µM (inactive) | > 100 µM (inactive) | > 100 µM (inactive) | > 100 µM (inactive) | > 100 µM (inactive) | > 100 µM (inactive) | > 100 µM (inactive)
9 | C=CCCCN1CCCC(C)C1=S (stereo unspecified) | > 100 µM (inactive) | > 100 µM (inactive) | > 100 µM (inactive) | > 100 µM (inactive) |  | > 100 µM (inactive) | > 100 µM (inactive) | > 100 µM (inactive) | > 100 µM (inactive) | > 100 µM (inactive) |  | > 100 µM (inactive) | > 100 µM (inactive) | > 100 µM (inactive) | > 100 µM (inactive) | > 100 µM (inactive) | > 100 µM (inactive) | > 100 µM (inactive)
